According to patent US10166253B2, “Positively charged co-polymers for use as antimicrobial agents” (priority 2014, dated 2019):

Legend:
[1] = tested on: E. coli (strain NCTC 10418); assay: Antimicrobial susceptibility testing by flow cytometry-based assay (LIVE/DEAD BacLight, Syto9/PI); format: cell-based, Escherichia coli; conditions: 50 μg/ml, 30 minutes
Method: (§1) E. coli (strain NCTC 10418), P. aeruginosa (Strain PAO1) and S. aureus (Wood 46, NCTC 7121) cells were grown in 5 mL of Todd Hewitt Broth medium (THB; Sigma-Aldrich). Bacteria were cultivated at 37° C. for 15 h in a 15 mL tube to obtain late-log phase cultures. Bacterial cultures were pelleted at 3096 g for 10 minutes; the supernatant was discarded and bacteria were resuspended in phosphate-buffered saline (PBS) supplemented with 40 mg/ml human albumin to mimic chemical properties of blood. Bacteria were diluted to a standardized inoculum of 10^9 CFU/mL.
(§2) Bacteria were treated with GA, LL-37, Piperacillin/Tazobactam or Vancomycin in varying concentrations, i.e. 50, 25, 10 or 2 μg/ml, for 30 minutes. As a positive control, bacteria were treated with 7% isopropanol. Hereafter, bacteria were pelleted at 3096 g for 10 minutes; the supernatant was discarded and bacteria were resuspended in PBS. The antimicrobial effect was tested in a well-established and widely used flow cytometry-based assay (LIVE/DEAD® BacLight™ Bacterial Viability and Counting Kit (L34856), Molecular Probes/Invitrogen) according to manufacturer's manual.
(§3) For each bacteria, the flow cytometry-based assay was repeated four times.
Flow cytometry was used to determine the antimicrobial activity of GA and LL-37. The flow cytometry diagrams show the results after treatment with 50 μg/ml LL-37, GA, piperacillin/tazobactam, 7% isopropanol and the untreated control. […] This gating strategy was primarily applied to avoid counting beads in the upper right corner of the FS-SS. […] Thus, a two-color fluorescence assay of bacterial viability, including PI and Syto9 staining, was applied. Syto9 stains all bacteria in a population, i.e. those with intact and those with damaged membranes. In contrast, propidium iodide (PI) penetrates only bacteria with damaged membranes, thereby making quantification of bacterial viability possible.

[2] = tested on: S. aureus (Wood 46, NCTC 7121); assay: as above; format: cell-based, Staphylococcus aureus; conditions: 30 minutes
Method: as §1, §2, §3

S. aureus (Wood 46) = assay: Antimicrobial susceptibility testing (MIC) by the oCelloScope system; format: cell-based, Staphylococcus aureus; conditions: CAMHBT broth, SESA growth curves
Method: E. coli (strain NCTC 10418) and S. aureus (Wood 46, NCTC 7121) were grown overnight in Sensititre® cation-adjusted Mueller-Hinton broth with TES (CAMHBT, TREK Diagnostic System). Bacterial cell suspensions were adjusted to 0.5 McFarland standard using a nephelometer. Subsequently, bacteria were diluted in CAMHBT according to the recommended final inoculum size for broth dilution (5×10^5 colony-forming units (CFU) ml^−1) (Wiegand, I., K. Hilpert, and R. E. Hancock, Agar and broth dilution methods to determine the minimal inhibitory concentration (MIC) of antimicrobial substances. Nat Protoc, 2008. 3(2): p. 163-75) and analyzed in Nunc Edge 96-well plates by the oCelloScope system.
The oCelloScope is a digital time-lapse microscopy technology that scans through a fluid sample generating series of images as described in 2013 by Fredborg et al. (Fredborg, M., et al., Real-time optical antimicrobial susceptibility testing. J Clin Microbiol, 2013. 51(7): p. 2047-53). As a result of the tilted imaging plane, the images recorded by the oCelloScope system constitute a parallelepipedum that forms the image stack. […] Growth kinetics was determined by image stack processing based on contrast based Segmentation and Extraction of Surface Area (SESA). […]
The effect of GA on bacterial growth was further evaluated using, an optical screening system (oCelloScope) (FIG. 6). […]

[3] = tested on: E. coli (strain NCTC 10418); assay: Colony-forming unit (CFU) counting; format: cell-based, Escherichia coli; conditions: 30 minutes at 37° C. in PBS, even at 2 μg/ml
Method: (§4) Late-log phase E. coli (strain NCTC 10418), P. aeruginosa (strain PAO1, ATCC 15692) and S. aureus (Wood 46, NCTC 7121) were resuspended in PBS and treated with different concentrations of glatiramer acetate (GA) or LL-37 (Innovagen, Lund, Sweden) and incubated on a shaker for 30 minutes at 37° C. Subsequently, a dilution series was performed to achieve a suitable amount of bacteria on the 5% blood agar plates. The 5% blood agar streak plates were cultured at 37° C. for 16 h and the resulting CFUs on the blood agar plates were imaged with a digital camera and counted with the aid of the software ImageJ 1.48v.

[4] = tested on: S. aureus (Wood 46, NCTC 7121); assay: Colony-forming unit (CFU) counting; format: cell-based, Staphylococcus aureus; conditions: 30 minutes at 37° C. in PBS
Method: as §4

E. coli (NCTC 10418) = assay: Transmission electron microscopy of treated bacteria; format: cell-based, Escherichia coli
From the text: (§5) Transmission electron microscopy (TEM) was applied to examine the ultrastructural changes in P. aeruginosa (PAO1), S. aureus (Wood 46) and E. coli (NCTC 10418) induced after treatment with GA and LL-37. […] This critical alteration in the outer membrane of E. coli has previously been described as a disintegration of the outer membrane into micelles and vesicle-like structures (Meincken, M., D. L. Holroyd, and M. Rautenbach, Atomic force microscopy study of the effect of antimicrobial peptides on the cell envelope of Escherichia coli. Antimicrob Agents Chemother, 2005. 49(10): p. 4085-92). […] After incubation with LL-37 and GA, we found burst cells, but this observation was most significant after treatment with LL-37 (FIG. 9). Scale bar, 0.5 μm. Experiments were performed as 2 replicates.

P. aeruginosa (PAO1) = assay: as above; format: cell-based, Pseudomonas aeruginosa
From the text: as §5

## Glatiramer acetate [GA]
[1]
  percentage of bacteria testing positive for PI: 17.7%
  percentage of bacteria testing positive for Syto-9: 78.3%
[2]
  percentage of bacteria testing positive for PI: 12.1%
S. aureus (Wood 46)
  MIC: 500 µg/mL
[3]
  antibacterial effect by CFU counting (in words): enhanced ability to kill E. coli
[4]
  antibacterial effect by CFU counting (in words): low antimicrobial impact
E. coli (NCTC 10418)
  ultrastructural changes (TEM, in words): Signs of damage to the bacterial membrane
P. aeruginosa (PAO1)
  ultrastructural changes (TEM, in words): dramatically reduced number of P. aeruginosa
